Source: patent publication US12502338B2, “Dental glass ionomer cement” (GC Corporation, priority 2020, dated 2025)

test: Water solubility / water insolubility by visual observation; type: physicochemical; settings: 0.4 g sample in 4 g distilled water, 20° C., 30 minutes
Experimental: As used herein and in the claims, a water-soluble compound means a compound having a solubility in water of 10 g/100 g H2O or more at 20° C.
4 g of distilled water and 0.4 g of a sample were sufficiently stirred at 20° C., allowed to stand for 30 minutes, and then visually observed. When white turbidity and biphasic separation were not observed, it was judged to be water soluble. When white turbidity or biphasic separation was observed, it was judged to be water insoluble.

Row | Compound | water solubility / water insolubility
1 | C=C(C)C(=O)OCCOCCOCCOC(=O)C(=C)C [TEGDMA, triethylene glycol dimethacrylate] | WATER-SOLUBLE
2 | C=C(C)C(=O)OCCOC(=O)NCCC(C)CC(C)(C)CNC(=O)OCCOC(=O)C(=C)C (centres unmarked) [UDMA, di-2-methacryloxyethyl-2,2,4-triethylhexamethylene dicarbamate] | WATER-SOLUBLE
3 | C=C(C)C(=O)OCCO [HEMA, hydroxyethyl methacrylate] | WATER-SOLUBLE
4 | isocyanuric acid EO-modified trimethacrylate [UA-7100] | WATER-SOLUBLE
5 | C=CC(=O)NCCO [HEAA, hydroxyethyl acrylamide] | WATER-SOLUBLE
